US8324245B2, “Quinoline derivative and quinazoline derivative inhibiting self-phosphorylation of hepatocytus proliferator receptor, and medicinal composition containing the same” (Kyowa Hakko Kirin Co., Ltd., priority 2001, dated 2012)
One block for each compound: values may come before it.

Target: T1, met (HGF receptor) in human gastric cancer cells MKN45 (Homo sapiens, UniProt P08581)
T1 construct: endogenous in cells; host or cells: MKN45 human gastric cancer cells
Test: Inhibitory activity against met-autophosphorylation using ELISA method (2), MKN45 cells, HGF-independent
Type: cell-based
Method: Cells were cultured with RPMI medium containing 0.1% fetal calf serum in 96-well flat-bottom plate in an amount of 3×10^4 per well, and were incubated at 37° C. overnight. The medium was then replaced by a fresh RPMI medium containing 0.1% fetal calf serum. A solution of the test compound in dimethyl sulfoxide was added to each well, and the incuvation was continued at 37° C. for additional one hr. The medium was removed, the cells were washed with phosphate buffered saline (pH 7.4), and 50 μl of a lysis buffer (20 mM HEPES (pH 7.4), 150 mM NaCl, 0.2% Triton X-100, 10% glycerol, 5 mM sodium orthovanadylate, 5 mM disodium ethylenediaminetetraacetate, and 2 mM Na4P2O7) was then added thereto. The mixture was shaken at 4° C. for 2 hr to prepare a cell extract.
Separately, phosphate buffered saline (50 μl, pH 7.4) containing 5 μg/ml of anti-phospho-tyrosine antibody (PY20; purchased from Transduction Laboratories) was added to a microplate for ELISA (Maxisorp; purchased from NUNC), followed by gentle agitation at 4° C. overnight to coat the surface of the wells with the antibody. After washing of the plate, 300 μl of a blocking solution was added, followed by gentle agitation at room temperature for 2 hr to perform blocking. After washing, the whole quantity of the cell extract was transferred to the wells, and the plate was then allowed to stand at 4° C. overnight. After washing, an anti-HGF receptor antibody (h-Met (C-12), purchased from Santa Cruz Biotechnology) was allowed to react at room temperature for one hr, and, after washing, a peroxidase-labeled anti-rabbit Ig antibody (purchased from Amersham) was allowed to react at room temperature for one hr. After washing, a chromophoric substrate for peroxidase (purchased from Sumitomo Bakelite Co., Ltd.) was added thereto to initiate a reaction. After a suitable level of color development, a reaction termination solution was added to stop the reaction, and the absorbance at 450 nm was measured with a microplate reader.

T1 sequence (P08581 25-1390): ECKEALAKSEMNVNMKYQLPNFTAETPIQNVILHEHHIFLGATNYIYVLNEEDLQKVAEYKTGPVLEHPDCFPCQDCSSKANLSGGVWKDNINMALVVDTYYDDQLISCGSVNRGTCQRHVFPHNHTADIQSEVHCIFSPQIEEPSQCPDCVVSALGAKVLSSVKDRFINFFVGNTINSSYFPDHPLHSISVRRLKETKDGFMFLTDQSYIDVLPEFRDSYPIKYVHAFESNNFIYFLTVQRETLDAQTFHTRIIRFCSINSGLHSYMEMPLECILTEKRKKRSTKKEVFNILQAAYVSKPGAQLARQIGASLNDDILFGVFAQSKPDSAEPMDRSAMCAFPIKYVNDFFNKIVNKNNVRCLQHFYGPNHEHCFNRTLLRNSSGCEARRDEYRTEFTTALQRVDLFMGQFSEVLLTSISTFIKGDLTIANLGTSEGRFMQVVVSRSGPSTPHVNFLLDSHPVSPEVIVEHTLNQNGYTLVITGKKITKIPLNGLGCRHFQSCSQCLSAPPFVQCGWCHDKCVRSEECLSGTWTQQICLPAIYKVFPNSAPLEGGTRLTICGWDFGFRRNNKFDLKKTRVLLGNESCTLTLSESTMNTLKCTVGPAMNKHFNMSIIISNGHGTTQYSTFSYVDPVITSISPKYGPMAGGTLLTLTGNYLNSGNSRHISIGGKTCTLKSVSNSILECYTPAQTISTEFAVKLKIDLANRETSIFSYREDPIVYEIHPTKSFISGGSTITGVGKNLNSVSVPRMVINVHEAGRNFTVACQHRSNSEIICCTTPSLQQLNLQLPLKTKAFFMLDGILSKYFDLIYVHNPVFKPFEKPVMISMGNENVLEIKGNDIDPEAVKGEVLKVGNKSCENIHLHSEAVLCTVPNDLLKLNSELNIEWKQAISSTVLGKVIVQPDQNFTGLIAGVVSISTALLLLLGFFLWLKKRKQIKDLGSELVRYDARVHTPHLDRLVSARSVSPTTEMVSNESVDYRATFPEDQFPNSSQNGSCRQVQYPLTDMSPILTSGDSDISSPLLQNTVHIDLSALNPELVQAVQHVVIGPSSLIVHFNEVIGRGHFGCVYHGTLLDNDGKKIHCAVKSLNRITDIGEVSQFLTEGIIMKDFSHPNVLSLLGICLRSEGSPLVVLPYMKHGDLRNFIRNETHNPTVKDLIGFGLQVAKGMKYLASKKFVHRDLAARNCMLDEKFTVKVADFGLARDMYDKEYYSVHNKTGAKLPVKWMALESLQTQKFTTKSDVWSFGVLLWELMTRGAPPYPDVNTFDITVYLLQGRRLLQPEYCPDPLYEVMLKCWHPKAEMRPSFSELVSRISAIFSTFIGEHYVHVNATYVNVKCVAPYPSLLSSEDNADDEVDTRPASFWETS

SMILES: COc1cc2nccc(Oc3ccc(NC(=S)NC(=O)CC4CCCCC4)c(F)c3)c2cc1OC [Example 166, 1-(2-cyclohexylacetyl)-3-[4-(6,7-dimethoxy-quinolin-4-yloxy)-2-fluorophenyl]thiourea]
IC50: 318 nM

SMILES: COc1cc2nccc(Oc3ccc(NC(=S)NC(=O)Cc4cccc(F)c4)cc3Cl)c2cc1OC [Example 76, 1-[3-chloro-4-(6,7-dimethoxyquinolin-4-yloxy)-phenyl]-3-[2-(3-fluorophenyl)acetyl]thiourea]
IC50: 51.7 nM

SMILES: COc1cc2nccc(Oc3cc(C)c(NC(=O)CC(=O)Nc4ccc(F)cc4F)cc3C)c2cc1OC [Example 224, N-(2,4-difluorophenyl)-N′-[4-(6,7-dimethoxy-quinolin-4-yloxy)-2,5-dimethylphenyl]malonamide]
IC50: 316 nM

SMILES: COc1cc2nccc(Oc3ccc(NC(=S)NC(=O)Cc4ccc(F)cc4F)c(F)c3)c2cc1OC [Example 93, 1-[2-(2,4-difluorophenyl)acetyl]-3-[4-(6,7-dimethoxyquinolin-4-yloxy)-2-fluorophenyl]thiourea]
IC50: 121 nM

SMILES: COc1cc2nccc(Oc3ccc(NC(=S)NC(=O)Cc4cccc(F)c4)c(F)c3)c2cc1OC [Example 74, 1-[4-(6,7-dimethoxyquinolin-4-yloxy)-2-fluoro-phenyl]-3-[2-(3-fluorophenyl)acetyl]thiourea]
IC50: 182 nM

SMILES: COc1cc2c(Oc3ccc(NC(=S)NC(=O)Cc4cccc(F)c4)cc3F)ccnc2cc1OCCN1CCOCC1 [Example 279, 1-{3-Fluoro-4-[6-methoxy-7-(2-morpholin-4-yl-ethoxy)-quinolin-4-yloxy]-phenyl}-3-[2-(3-fluoro-phenyl)-acetyl]-thiourea]
IC50: 20.4 nM

SMILES: COc1cc(Oc2ccnc3cc(OC)c(OC)cc23)ccc1NC(=S)NC(=O)Cc1ccsc1 [Example 86, 1-[4-(6,7-dimethoxyquinolin-4-yloxy)-2-methoxyphenyl]-3-(2-thiophen-3-ylacetyl)thiourea]
IC50: 23.5 nM

SMILES: COc1cc2nccc(Oc3ccc(NC(=O)C(C)(C)C(=O)Nc4ccc(F)cc4F)cc3)c2cc1OC [Example 104, N-(2,4-difluorophenyl)-N′-[4-(6,7-dimethoxy-quinolin-4-yloxy)phenyl]-2,2-dimethylmalonamide]
IC50: 344 nM

SMILES: COc1cc2nccc(Oc3ccc(NC(=O)NC(=O)Cc4c(F)cccc4F)c(F)c3)c2cc1OC [Example 134, 1-[2-(2,6-difluorophenyl)acetyl]-3-[4-(6,7-dimethoxyquinolin-4-yloxy)-2-fluorophenyl]urea]
IC50: 232 nM

SMILES: COc1cc2nccc(Oc3ccc(NC(=O)NC(=O)Nc4cccc(C(C)=O)c4)cc3)c2cc1OC [Example 261, N-(3-acetylphenyl)-({[4-(6,7-dimethoxy-quinolin-4-yloxy)anilino]carbonyl}amino)-methanamide]
IC50: 343 nM

SMILES: COc1cc2nccc(Oc3ccc(NC(=O)NC(=O)Cc4cccc(F)c4)c(F)c3)c2cc1OC [Example 36, 1-[4-(6,7-dimethoxyquinolin-4-yloxy)-2-fluoro-phenyl]-3-[2-(3-fluorophenyl)acetyl]urea]
IC50: 198 nM

SMILES: COc1cc2nccc(Oc3ccc(NC(=O)NC(=O)Cc4cccc(F)c4F)cc3F)c2cc1OC [Example 139, 1-[2-(2,3-difluorophenyl)acetyl]-3-[4-(6,7-dimethoxyquinolin-4-yloxy)-3-fluorophenyl]urea]
IC50: 243 nM

SMILES: COc1cc2c(Oc3ccc(NC(=O)NC(=O)Cc4ccccc4F)cc3F)ccnc2cc1OCCCn1ccnc1 [Example 306, 1-{3-Fluoro-4-[7-(3-imidazol-1-yl-propoxy)-6-methoxy-quinolin-4-yloxy]-phenyl}-3-[2-(2-fluoro-phenyl)-acetyl]-urea]
IC50: 33.9 nM

SMILES: COc1cc2nccc(Oc3ccc(NC(=O)NC(=O)Nc4ccc5c(c4)CCC5)cc3)c2cc1OC [Example 243, N-(2,3-dihydro-1H-5-indenyl)-({[4-(6,7-dimethoxyquinolin-4-yloxy)anilino]carbonyl}amino)-methanamide]
IC50: 3010 nM

SMILES: COc1cc2c(Oc3ccc(NC(=O)NC(=O)Cc4ccc(F)cc4)cc3F)ccnc2cc1OCC(O)CN1CCOCC1 (centres unmarked) [Example 336, 1-{3-Fluoro-4-[7-(2-hydroxy-3-morpholin-1-yl-propoxy)-6-methoxy-quinolin-4-yloxy]-phenyl}-3-[2-(4-fluoro-phenyl)-acetyl]-urea]
IC50: 32.8 nM

SMILES: COc1cc2nccc(Oc3c(Cl)cc(NC(=S)NC(=O)Cc4ccccc4)cc3Cl)c2cc1OC [Example 70, 1-[3,5-dichloro-4-(6,7-dimethoxyquinolin-4-yloxy)phenyl]-3-phenylacetylthiourea]
IC50: 15.3 nM

SMILES: COc1cc2nccc(Oc3ccc(NC(=O)NC(=O)CN4CCCc5cc(C)ccc54)c(F)c3)c2cc1OC [Example 119, 1-[4-(6,7-dimethoxyquinolin-4-yloxy)-2-fluorophenyl]-3-[2-(6-methyl-3,4-dihydro-2H-quinolin-1-yl)acetyl]urea]
IC50: 442 nM

SMILES: COc1cc2nccc(Oc3ccc(NC(=O)NC(=O)CSc4nccn4C)cc3Cl)c2cc1OC [Example 130, 1-[3-chloro-4-(6,7-dimethoxyquinolin-4-yloxy)phenyl]-3-[2-(1-methyl-1H-imidazol-2-ylsulfanyl)-acetyl]urea]
IC50: 2160 nM

SMILES: CCOCCC(=O)NC(=S)Nc1ccc(Oc2ccnc3cc(OC)c(OC)cc23)cc1 [Example 62, 1-[4-(6,7-dimethoxyquinolin-4-yloxy)phenyl]-3-(3-ethoxypropionyl)thiourea]
IC50: 92 nM

More lines, now with the values ahead:

IC50: 338 nM
SMILES: COc1cc2nccc(Oc3ccc(NC(=O)NC(=O)CN4CCc5ccccc54)c(F)c3)c2cc1OC [Example 121, 1-[2-(2,3-dihydro-1H-1-indol-1-yl)acetyl]-3-[4-(6,7-dimethoxyquinolin-4-yloxy)-2-fluorophenyl]urea]

IC50: 447 nM
SMILES: COc1cc2nccc(Oc3ccc(NC(=O)NC(=O)Nc4ccc(F)cc4Cl)cc3)c2cc1OC [Example 250, N-(2-chloro-4-fluorophenyl)-({[4-(6,7-dimethoxyquinolin-4-yloxy)anilino]carbonyl}amino)-methanamide]

IC50: 228 nM
SMILES: COc1cc2nccc(Oc3ccc(NC(=O)CC(=O)N(C)c4ccccc4)cc3)c2cc1OC [Example 216, N-[4-(6,7-dimethoxyquinolin-4-yloxy)phenyl]-N′-methyl-N′-phenylmalonamide]

IC50: 201 nM
SMILES: COc1cc2nccc(Oc3ccc(NC(=O)CC(=O)Nc4ccc(F)cc4F)c(Cl)c3)c2cc1OC [Example 222, N-[2-chloro-4-(6,7-dimethoxyquinolin-4-yloxy)phenyl]-N′-(2,4-difluorophenyl)malonamide]

IC50: 347 nM
SMILES: COc1cc2nccc(Oc3ccc(NC(=O)NC(=O)Nc4ccc(F)c(F)c4)cc3)c2cc1OC [Example 264, N-(3,4-difluorophenyl)-({[4-(6,7-dimethoxy-quinolin-4-yloxy)anilino]carbonyl}amino)methanamide]

IC50: 26.1 nM
SMILES: COc1cc2c(Oc3ccc(NC(=O)NC(=O)Cc4ccccc4)cc3F)ccnc2cc1OCCN1CCOCC1 [Example 54, 1-{3-fluoro-4-[6-methoxy-7-(2-morpholin-4-yl-ethoxy)quinolin-4-yloxy]phenyl}-3-phenylacetylurea]

IC50: 982 nM
SMILES: COc1cc2nccc(Oc3ccc(NC(=S)NC(=O)Cc4ccccc4[N+](=O)[O-])cc3)c2cc1OC [Example 155, 1-[4-(6,7-dimethoxyquinolin-4-yloxy)phenyl]-3-[2-(2-nitrophenyl)acetyl]thiourea]

IC50: 479 nM
SMILES: COc1cc2nccc(Oc3ccc(NC(=O)CC(=O)NCC4CCCCC4)cc3)c2cc1OC [Example 218, N-cyclohexylmethyl-N′-[4-(6,7-dimethoxy-quinolin-4-yloxy)phenyl]malonamide]

IC50: 2230 nM
SMILES: COc1cc2nccc(Oc3ccc(NC(=O)NC(=O)Nc4cccc5cccnc45)cc3)c2cc1OC [Example 260, N-(8-quinolyl)-({[4-(6,7-dimethoxyquinolin-4-yloxy)anilino]carbonyl}amino)methanamide]

IC50: 273 nM
SMILES: COc1cc2nccc(Oc3ccc(NC(=O)NC(=O)Nc4ccc(F)cc4F)cc3)c2cc1OC [Example 229, N-(2,4-difluorophenyl)-({[4-(6,7-dimethoxy-quinolin-4-yloxy)anilino]carbonyl}amino)methanamide]

IC50: 224 nM
SMILES: COc1cc2nccc(Oc3ccc(NC(=S)NC(=O)Cc4ccc(C)cc4)cc3F)c2cc1OC [Example 190, 1-[4-(6,7-dimethoxyquinolin-4-yloxy)-3-fluorophenyl]-3-(2-p-tolylacetyl)thiourea]

IC50: 171 nM
SMILES: COc1cc2nccc(Oc3ccc(NC(=S)NC(=O)Cc4cc(F)ccc4F)c(F)c3)c2cc1OC [Example 96, 1-[2-(2,5-difluorophenyl)acetyl]-3-[4-(6,7-dimethoxyquinolin-4-yloxy)-2-fluorophenyl]thiourea]

IC50: 1010 nM
SMILES: COc1cc2nccc(Oc3ccc(NC(=O)NC(=O)CSc4ccccc4)cc3)c2cc1OC [Example 129, 1-[4-(6,7-dimethoxyquinolin-4-yloxy)phenyl]-3-(2-phenylsulfanylacetyl)urea]
